Key:
Assay type in all cases: in vivo, human
[1] = tested on: clinically stable subjects with schizophrenia; experiment: MATRICS Consensus Cognitive Battery (MCCB), Phase 2a Clinical Study A, ITT; settings: 25 mg QD, Change to Week 12
Description: A Phase 2a proof-of-concept (POC) study in clinically stable subjects with schizophrenia who were clinically stable and received stable doses of atypical antipsychotic therapy. The study was a Phase 2, multi-center, randomized, double-blind, placebo-controlled, parallel group study designed to evaluate the safety and efficacy of doses of (4s)-4-(5-phenyl-1,3,4-thiadiazol-2-yloxy)-1-azatricyclo[3.3.1.1^3,7]decane (Compound A) in clinically stable male and female subjects (ages 20 to 55, inclusive) with a Diagnostic and Statistical Manual of Mental Disorders—Fourth Edition, Text Revision (DSM-IV-TR) diagnosis of schizophrenia. […] The criteria for clinical stability was determined by a combination of retrospective data (over the 4 months prior to the start of Screening, which will be supported by clinical records, patient, identified responsible contact person, and physician interviews), and prospective data assessed during the Prospective Stabilization Period of 28 to 42 days duration. […]
The primary endpoint was the MCCB composite score, and the primary endpoint analysis was the change on the MCCB composite score from baseline to endpoint versus placebo. Other secondary measures included the MCCB domains, the NSA-16, the CANTAB cognition battery (measured at different time points from the MCCB), and the UPSA-2. […]

[2] = tested on: clinically stable subjects with schizophrenia; experiment: UCSD Performance-Based Skills Assessment-2 (UPSA-2), Clinical Study A
Description: (§1) A Phase 2a proof-of-concept (POC) study in clinically stable subjects with schizophrenia who were clinically stable and received stable doses of atypical antipsychotic therapy. The study was a Phase 2, multi-center, randomized, double-blind, placebo-controlled, parallel group study designed to evaluate the safety and efficacy of doses of (4s)-4-(5-phenyl-1,3,4-thiadiazol-2-yloxy)-1-azatricyclo[3.3.1.1^3,7]decane (Compound A) in clinically stable male and female subjects (ages 20 to 55, inclusive) with a Diagnostic and Statistical Manual of Mental Disorders—Fourth Edition, Text Revision (DSM-IV-TR) diagnosis of schizophrenia. Psychiatric diagnoses were confirmed using the Mini-International Neuropsychiatric Interview (MINI) version 6.0.0. The criteria for clinical stability was determined by a combination of retrospective data (over the 4 months prior to the start of Screening, which will be supported by clinical records, patient, identified responsible contact person, and physician interviews), and prospective data assessed during the Prospective Stabilization Period of 28 to 42 days duration.
The study was a Phase 2, multi-center, randomized, double-blind, placebo-controlled, parallel group study designed to evaluate the safety and efficacy of doses of (4s)-4-(5-phenyl-1,3,4-thiadiazol-2-yloxy)-1-azatricyclo[3.3.1.1^3,7]decane, which is also recognized as Compound A, in treating cognitive deficits in subjects with schizophrenia who were clinically stable and receiving one or two atypical antipsychotic medications. Study drug was administered orally.
(§2) The study consisted of a screening period of at least 28 and up to 42 days, a 84-day outpatient treatment period, a 14-day post-treatment period, and a post-treatment follow-up period. The screening period consisted of three visits: Screening Visit 1, Screening Visit 2, and Day −1. Upon completion of Day −1 procedures, eligible subjects were randomized through an Interactive Voice Response/Interactive Web-Based (IVR/IWB) system. Subjects were randomized in an equal ratio to one of three treatment groups (placebo, 10 mg Compound A, or 25 mg Compound A).
The primary endpoint was the MCCB composite score, and the primary endpoint analysis was the change on the MCCB composite score from baseline to endpoint versus placebo. Other secondary measures included the MCCB domains, the NSA-16, the CANTAB cognition battery (measured at different time points from the MCCB), and the UPSA-2. The Positive and Negative Syndrome Scale (PANSS) was included to document stability in schizophrenia symptomatology.
The UCSD Performance-Based Skills Assessment-2 (UPSA-2) is a role-play test designed for subjects with schizophrenia to evaluate cognitive functional capacity in six selected domains of basic living skills. These areas include Organization/Planning, Financial Skills, Communication, Transportation, Household Management, and Medication Management. […] Scores were obtained for each subtest, and the total score was the sum of these subtests. […] The UPSA-2 required an average of 30 minutes to administer. The UPSA-2 was administered in on Days 14, 28, 56, 84 and 98.

[3] = tested on: subjects with schizophrenia who were not current smokers; experiment: MCCB composite score in non-smokers by COMT SNP, Clinical Study A; settings: for MCCB composite score, change score: subjects who were not current smokers; for MCCB Change from Baseline to Final Mean(SD) / MCCB Between-group Difference (Pooled SD) / MCCB Effect Size (Raw mean): non-smokers; for treatment effect on MCCB: nonsmokers
Protocol: Analysis of the data by cigarette smoking status (current smoker or current nonsmoker) indicated a significant […] interaction (p=0.015).
A blood sample for genotyping was collected from each subject who consented. Genomic DNA was isolated from whole blood using the FlexiGene DNA AGF3000 kit (Qiagen, Valencia, Calif.), on an AutogenFlex 3000 (AutoGen, Holliston, Mass.). Genotypes were determined using the Pyrosequencing detection method (USA—Qiagen, Inc., Valencia, Calif.). Individuals performing the genotyping were blinded to clinical trial data. The significance of the minor allele against the major allele is shown in column marked “Treatment genotype p-value” (Tables 6 and 7).
A similar dose-response trend was observed across the four COMT SNPs in the population of nonsmokers as well (data not shown).

[4] = tested on: clinically stable subjects with schizophrenia; experiment: Disposition of subjects and tolerability, Clinical Study A
Description: as §1, §2
Subjects completed 2 visits during the screening period. Study site personnel contacted each subject by telephone on Day 21, 35, and 70 of the 84-day treatment period to discuss study drug compliance, antipsychotic medication compliance, concomitant medication use, substance use, and any adverse events.
A total of 207 subjects were randomized.

[5] = RS4633 C/C (major allele), 25 mg vs placebo
[6] = RS4633 T/T or C/T (minor allele), 10 mg vs placebo
[7] = RS4633 T/T or C/T (minor allele), 25 mg vs placebo
[8] = RS4680 A/A or G/A (minor allele), 10 mg vs placebo
[9] = RS4680 A/A or G/A (minor allele), 25 mg vs placebo
[10] = RS4680 G/G (major allele), 25 mg vs placebo
[11] = RS4818 C/C (major allele), 25 mg vs placebo
[12] = RS4818 G/C or G/G (minor allele), 10 mg vs placebo
[13] = RS4818 G/C or G/G (minor allele), 25 mg vs placebo
[14] = RS6269 A/A (major allele), 25 mg vs placebo
[15] = RS6269 G/G or A/G (minor allele), 10 mg vs placebo
[16] = RS6269 G/G or A/G (minor allele), 25 mg vs placebo

c1ccc(-c2nnc(O[C@@H]3C4CC5C[C@H]3C[N@](C5)C4)s2)cc1 [Compound A, (4s)-4-(5-phenyl-1,3,4-thiadiazol-2-yloxy)-1-azatricyclo[3.3.1.1^3,7]decane]
MCCB Verbal Learning, Observed Mean (SD) change from baseline [1]: 2.24 (8.03) T-score | UPSA-2 medication management subscale score ([2]; 10 mg, P=0.094): statistically significant improvement or statistical trend for improvement | UPSA-2 household skills subscale score ([2]; 10 mg, P=0.096): statistically significant improvement or statistical trend for improvement | UPSA-2 comprehension/planning subscale score ([2]; 10 mg, P=0.102): statistically significant improvement or statistical trend for improvement | UPSA-2 comprehension/planning subscale score ([2]; 25 mg, P=0.005): statistically significant improvement or statistical trend for improvement | UPSA-2 composite score, significance versus placebo ([2]; either dose group (10 mg, 25 mg)): No significance | MCCB composite score, change score ([3]; 10 mg, p=0.021): +2.1 | MCCB composite score, change score ([3]; 25 mg, p=0.001): +4.5 | MCCB Change from Baseline to Final Mean(SD) ([3]; RS4633 C/C (major allele), 25 mg): 7.4(6.1) | MCCB Between-group Difference (Pooled SD) [3, 5]: 8.4(5.1) | MCCB Effect Size (Raw mean) [3, 5]: 1.65 | MCCB Change from Baseline to Final Mean(SD) ([3]; RS4633 T/T or C/T (minor allele), 10 mg): 2.4(7.3) | MCCB Between-group Difference (Pooled SD) [3, 6]: 2.7(6.1) | MCCB Effect Size (Raw mean) [3, 6]: 0.44 | MCCB Change from Baseline to Final Mean(SD) ([3]; RS4633 T/T or C/T (minor allele), 25 mg): 2.4(5.4) | MCCB Between-group Difference (Pooled SD) [3, 7]: 2.7(4.9) | MCCB Effect Size (Raw mean) [3, 7]: 0.55 | MCCB Change from Baseline to Final Mean(SD) ([3]; RS4680 A/A or G/A (minor allele), 10 mg): 2.2(7.5) | MCCB Between-group Difference (Pooled SD) [3, 8]: 2.4(6.4) | MCCB Effect Size (Raw mean) [3, 8]: 0.38 | MCCB Change from Baseline to Final Mean(SD) ([3]; RS4680 A/A or G/A (minor allele), 25 mg): 2.4(5.4) | MCCB Between-group Difference (Pooled SD) [3, 9]: 2.6(4.7) | MCCB Effect Size (Raw mean) [3, 9]: 0.55 | MCCB Change from Baseline to Final Mean(SD) ([3]; RS4680 G/G (major allele), 25 mg): 7.4(6.1) | MCCB Between-group Difference (Pooled SD) [3, 10]: 8.4(5.1) | MCCB Effect Size (Raw mean) [3, 10]: 1.65 | MCCB Change from Baseline to Final Mean(SD) ([3]; RS4818 C/C (major allele), 25 mg): 1.3(6.7) | MCCB Between-group Difference (Pooled SD) [3, 11]: 1.8(5.3) | MCCB Effect Size (Raw mean) [3, 11]: 0.34 | MCCB Change from Baseline to Final Mean(SD) ([3]; RS4818 G/C or G/G (minor allele), 10 mg): 1.2(3.8) | MCCB Between-group Difference (Pooled SD) [3, 12]: 1.8(3.9) | MCCB Effect Size (Raw mean) [3, 12]: 0.46 | MCCB Change from Baseline to Final Mean(SD) ([3]; RS4818 G/C or G/G (minor allele), 25 mg): 5.8(5.3) | MCCB Between-group Difference (Pooled SD) [3, 13]: 6.4(4.8) | MCCB Effect Size (Raw mean) [3, 13]: 1.33 | MCCB Change from Baseline to Final Mean(SD) ([3]; RS6269 A/A (major allele), 25 mg): 1.9(6.3) | MCCB Between-group Difference (Pooled SD) [3, 14]: 2.2(4.9) | MCCB Effect Size (Raw mean) [3, 14]: 0.45 | MCCB Change from Baseline to Final Mean(SD) ([3]; RS6269 G/G or A/G (minor allele), 10 mg): 1.0(3.5) | MCCB Between-group Difference (Pooled SD) [3, 15]: 1.9(3.9) | MCCB Effect Size (Raw mean) [3, 15]: 0.49 | MCCB Change from Baseline to Final Mean(SD) ([3]; RS6269 G/G or A/G (minor allele), 25 mg): 5.9(5.6) | MCCB Between-group Difference (Pooled SD) [3, 16]: 6.8(5.2) | MCCB Effect Size (Raw mean) [3, 16]: 1.31 | treatment effect on MCCB ([3]; minor allele of the four COMT SNPs): highly robust | treatment effect on MCCB ([3]; subjects containing the major allele): meaningful effect | Discontinuation: Adverse event ([4]; 10 mg QD): 4 (5.8) n (%) | Discontinuation: Adverse event ([4]; 25 mg QD): 3 (4.5) n (%) | Discontinuation: Adverse event ([4]; Compound A overall): 7 (5.1) n (%) | tolerability ([4]; subjects with schizophrenia, doses up to 25 mg QD, including 10 mg QD and 25 mg QD): well tolerated
